In patent EP0579804B1, “BIOLOGICAL ARTIFICIAL LIVER” (MONSANTO COMPANY, priority 1992, dated 1993):

System: Hepatocytes
Test: extracorporeal hepatic metabolism in the hepatocyte bioreactor attached to an ahepatic pig
Assay type: in vitro ADME, outbred Yorkshire/white pig
Details: administered into the ultrafiltrate at the inlet of the bioreactor; metabolites 7-OH-coumarin and monoethylglycinexylidide (MEGX) measured at the outlets of the bioreactors
Experimental: The medium used was the hormone-supplemented Waymouth medium as described in Example 1. To accommodate 2 to 5 billion cells, the bioreactor was scaled up to two containment vessels, each with an internal diameter of 40 mm and a height of 100 mm. Glass beads of approx. 2 mm diameter and a total volume of 250 ml per containment vessel were used. Medium was perfused at a recycle rate of 360 ml/min.. […] The bioreactor was attached to an ahepatic pig (liver removed by surgery to mimic total hepatic failure) at approx. 2 hrs. after hepatocyte inoculation. Blood from the left femoral artery was directed into a Minntech hemoconcentrator. A 12 fringe elecath canula was inserted into the femoral artery and connected to a 1/4" PVC tubing to the hemoconcentrator. The hemoconcentrator separated the blood into a cell free ultrafiltrate fraction, and a blood cell fraction. The blood cell fraction was returned to the femoral vein via a similar tubing. The ultrafiltrate exited the hemoconcentrator via a 1/4" PVC tubing and entered the hepatocyte bioreactor system with the flow rate adjusted to 40 ml/min. using a roller pump. […] The respective metabolites, 7-OH-coumarin and monoethylglycinexylidide (MEGX), were measured at the outlets of the bioreactors before the ultrafiltrate was returned to the animal.

## CCOc1ccc2ccc(=O)oc2c1 [7-ethoxycoumarin]
  metabolism: Significant metabolism
